Values joined by “and” are separate entries in the source; they are usually repeats but may differ in a detail not shown here. Identical values can stand only once. Marks after values point to notes of the source that are not given here. Where no end group is shown, it is not given here.
Tests used:
[1] = pH 7.4
[2] = test system: glucose metabolizing enzyme; settings: extracted from Spirulina; cited from earlier work
Excerpt: (§1) Marine proteins have a novel amino acid composition, which is one of the important sources for the production of bioactive peptides ([11], [12]). There have been a number of studies on natural hypoglycemic active peptides from marine sources such as Trachurus trachurus, Euphausia superba, Chlorella vulgaris and Crassostrea gigas ([11], [13–15]).

α-glucosidase = α-glucosidase (Saccharomyces cerevisiae, UniProt P53341); settings: cited from earlier work
Chain of α-glucosidase (P53341 whole entry): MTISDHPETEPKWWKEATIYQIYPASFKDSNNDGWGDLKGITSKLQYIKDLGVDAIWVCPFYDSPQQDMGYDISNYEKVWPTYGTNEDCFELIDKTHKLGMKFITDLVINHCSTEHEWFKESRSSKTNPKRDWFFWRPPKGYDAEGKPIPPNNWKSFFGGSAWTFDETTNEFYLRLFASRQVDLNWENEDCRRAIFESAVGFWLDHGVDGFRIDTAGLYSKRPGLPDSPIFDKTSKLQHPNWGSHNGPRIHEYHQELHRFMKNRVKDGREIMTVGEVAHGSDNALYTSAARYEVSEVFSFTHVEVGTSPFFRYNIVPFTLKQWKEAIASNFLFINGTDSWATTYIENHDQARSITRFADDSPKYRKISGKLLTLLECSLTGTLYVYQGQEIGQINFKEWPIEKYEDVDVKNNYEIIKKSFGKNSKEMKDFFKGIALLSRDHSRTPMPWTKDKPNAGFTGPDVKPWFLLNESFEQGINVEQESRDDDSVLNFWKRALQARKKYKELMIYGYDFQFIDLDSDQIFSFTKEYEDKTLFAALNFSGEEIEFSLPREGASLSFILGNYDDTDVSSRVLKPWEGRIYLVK
Excerpt: as §1, with “[13-15]). […] The molecular weight of protein hydrolysates is a determinant of their biological activity, and peptide fractions with low molecular weights are highly biologically active ([33]).” for “[13–15]).”

serum insulin = assay: Effect of EHCA on serum insulin (INS); format: in vivo, Kunming mice; settings: PC, metformin 150 mg/kg, mean ± SD, n = 10 mice
Experimental: Fifty healthy adult male Kunming mice were purchased from Zhuhai Bestest Biotechnology Co., Ltd. The experiments were approved by the Animal Ethics Committee of Guangdong Ocean University with the approval number of GDOU-LAE-2021-002, approved on 6 April 2021. Before the experiment, all animals were watered and fed freely for 7 days. […] The groups were mixed with soluble starch (250 mg/kg) and gavaged synchronously for 3 d. […] Effects of EHCA on mice at the end of the test, blood was taken from the eyeballs of mice, which were executed in the decapitated position, and the organs were collected for subsequent experiments. […] (5) […] Where WISI is the insulin sensitivity index; WFPG is fasting blood glucose, mmol/[…] is fasting insulin content (μU/mL); and WFBCI is the insulin secretion index.

SOD in liver = assay: Hepatic superoxide dismutase (SOD) activity; format: in vivo, Kunming mice; settings: PC, metformin 150 mg/kg
Experimental: (§2) Fifty healthy adult male Kunming mice were purchased from Zhuhai Bestest Biotechnology Co., Ltd. The experiments were approved by the Animal Ethics Committee of Guangdong Ocean University with the approval number of GDOU-LAE-2021-002, approved on 6 April 2021. Before the experiment, all animals were watered and fed freely for 7 days. […] The groups were mixed with soluble starch (250 mg/kg) and gavaged synchronously for 3 d.

blood glucose = assay: Effect of EHCA on blood glucose in normal mice (starch gavage); format: in vivo, Kunming mice
Experimental: as §2, with “3 d. […] Where G0 is the pre-dose fasting blood glucose value, mmol/L; […] Area under the curve (AUC) was calculated applying the following formula (Equation 4): (4) […]/4.” for “3 d.”

## KLNSTTEKLEE
[1]
  solubility: good solubility

## USW: anti-diabetic peptide USW extracted from Spirulina (LRSELAAWSR)
[2]
  effect on insulin resistance / glucose metabolizing enzyme: improve insulin resistance by significantly increasing activity of glucose metabolizing enzyme

## LRSELAAWSR [peptide from Spirulina platensis]
α-glucosidase; from Spirulina platensis
  IC50: 134 µM
  IC50, inhibitory activity against α-glucosidase: 134.2 µg/mL

## LPLLR [Walnut-derived peptide LPLLR]
α-glucosidase; 2 mM, walnut-derived
  inhibition of α-glucosidase: 50.12%

## CN(C)C(=N)N=C(N)N [metformin]
Serum insulin; ELISA
  Fasting serum insulin: 29.82 ± 5.50^a mIU/L
Serum insulin
  Insulin secretion index: 8.50 ± 1.12^a
  Insulin sensitivity index: 2.13 ± 0.13^a
SOD in liver; WST-8 method, mean ± SD, n = 10 mice, NC 242.00 ± 66.43
  SOD activity in liver: 363.55 ± 18.09 U/mL
SOD in liver; compared to the NC group
  increase of SOD activity in liver: 50.23%
Blood glucose; 0.5 h and 2 h of gavage, compared with the NC group, p < 0.05
  blood glucose values after gavage vs NC (in words): significantly reduce the blood glucose values
Blood glucose; EHCA 500-2,000 mg/kg or metformin 150 mg/kg, relative to NC group, p < 0.05, n = 10
  AUC of blood glucose (in words): markedly reduced the AUC values
Blood glucose; PC, metformin 150 mg/kg, gavage 3 d, fasting at the end of dosing, mean ± SD, n = 10 mice
  Blood glucose value, G1: 3.21 ± 0.20^a mmol/L
Blood glucose; PC, metformin 150 mg/kg, gavage 3 d with soluble starch, 0.5 h, mean ± SD, n = 10 mice, listed as PC
  Blood glucose value, 0.5 h: 8.45 mmol/L
Blood glucose; PC, metformin 150 mg/kg, gavage 3 d with soluble starch, 2 h, mean ± SD, n = 10 mice, listed as PC
  Blood glucose value, 2 h: 6.87 ± 1.14 mmol/L and 6.87 mmol/L
Blood glucose; PC, metformin 150 mg/kg, pre-dose fasting, mean ± SD, n = 10 mice
  Blood glucose value, G0: 4.94 ± 1.71^a mmol/L
Blood glucose; fasted mice, EHCA 500-2,000 mg/kg or metformin 150 mg/kg, 3 d, compared with the NC group, n = 10
  hypoglycemic rate (in words): significantly increased the hypoglycemic rate

## TDADHKF [TDADHKF, Thr-Asp-Ala-Asp-His-Lys-Phe]
[1]
  solubility: good solubility

Source: PMC11973072, “Computational screening for novel α-glucosidase inhibitory peptides from Chlamys nobilis adductor muscle as a potential antidiabetic agent” (Frontiers in Nutrition, 2025)
